Test [1] has as its system VEGF induced increases in intracellular calcium levels in HUVEC (human umbilical vein endothelial cells). Kind of test: VEGF Stimulated Ca++ Signal in vitro (FLIPR). It is filed as cell-based. Conditions: VEGF 5 ng/mL; for IC50: 0.01 to 10.0 μM. In short, it runs like this: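 HUVEC loaded with Fluo-4 (45 min, 37° C.), washed, then pre-incubated 30 min with compound (10 μM single dose or 0.01–10.0 μM; 0.1% DMSO) before 5 ng/mL VEGF. Fluorescence at 516 nm read by FLIPR; IC50 from % inhibition of max-min VEGF response.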

For test [2], the target named is T1, cytoplasmic domain of the human VEGF receptor (VEGFR-2) (Homo sapiens, UniProt P35968).
T1 construct: The cytoplasmic domain of the human VEGF receptor (VEGFR-2) was expressed as a Histidine-tagged fusion protein; Histidine tag
T1 sequence (P35968 786-1356): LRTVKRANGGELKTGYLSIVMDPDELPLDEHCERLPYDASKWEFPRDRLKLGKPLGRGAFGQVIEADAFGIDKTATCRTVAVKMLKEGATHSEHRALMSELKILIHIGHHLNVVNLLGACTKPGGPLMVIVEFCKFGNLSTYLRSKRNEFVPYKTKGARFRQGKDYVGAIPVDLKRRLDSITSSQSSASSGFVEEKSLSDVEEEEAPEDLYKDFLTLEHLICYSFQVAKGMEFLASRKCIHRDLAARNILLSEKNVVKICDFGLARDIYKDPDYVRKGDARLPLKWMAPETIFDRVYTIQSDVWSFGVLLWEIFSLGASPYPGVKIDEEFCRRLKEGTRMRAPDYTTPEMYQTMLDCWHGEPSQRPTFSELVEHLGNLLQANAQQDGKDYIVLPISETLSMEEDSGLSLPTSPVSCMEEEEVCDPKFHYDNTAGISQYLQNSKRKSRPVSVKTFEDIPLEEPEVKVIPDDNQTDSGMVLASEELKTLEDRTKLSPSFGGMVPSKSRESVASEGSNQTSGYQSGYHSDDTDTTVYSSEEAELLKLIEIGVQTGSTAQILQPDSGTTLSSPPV
Kind of test: KDR Assay. Format: biochemical. As to conditions: His-VEGFR-2; 3.6 μM ATP. A digest of the protocol:
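His-tagged human VEGFR-2 cytoplasmic domain from baculovirus-infected insect cells, acting on poly-Glu-Tyr (4:1)-coated plates with 3.6 μM ATP in Hepes pH 7.4 with MgCl2/MnCl2 and 5% final DMSO, 10 min at 25 °C. Phosphotyrosine detected by peroxidase-conjugated antibody ELISA at 492 nm; IC50 from blank-subtracted OD versus concentration.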

Test [3] concerns VEGF-induced EBD extravasation. Put plainly: VEGF-induced Dermal Extravasation in Guinea Pig (Miles Assay). Conditions: 75 mg/kg. Format: in vivo. On the procedure:
VEGF-induced Dermal Extravasation in Guinea Pig (Miles Assay). Male Hartley guinea pigs (300-600 g) were anesthetized with isofluorane, sheared, and given a single dose of drug or the respective vehicle. The guinea pigs were dosed orally unless indicated otherwise in Table 3. Ten minutes prior to the end of drug treatment, guinea pigs were anesthetized with isofluorane, and 0.5% Evans blue dye (EBD) in PBS (13-15 mg/kg dose of EBD) was injected intravenously. After 5 minutes, triplicate intradermal injections of 100 ng rhVEGF165 in 100 μl PBS and of 100 μl PBS alone were administered on the flank. After 20 minutes, each animal was euthanized with Pentosol, and the skin containing the intradermal injection sites was removed for image analysis.
Using an analog video camera coupled to a PC, an image of each trans-illuminated skin sample was captured, and the integrated optical density of each injection site was measured using ImagePro 4. For each skin sample, the difference between the mean optical density of the VEGF sites and mean optical density of the PBS sites is the measure of VEGF-induced EBD extravasation in that animal. These measured values were averaged per study group to determine the mean VEGF-induced EBD extravasation for each experimental condition, and the group means were then compared to assess inhibition of VEGF-induced EBD extravasation in the drug-treated groups relative to the vehicle-treated controls.
(§1) To determine the dose required for 50% inhibition (ID50), the percent inhibition data was plotted as a function of oral dose, using the ‘best-fit’ analysis within MicroSoft Excel software. The ID50 value was verified visually by using the plotted data (horizontal line from 50% y value, at intersection with best-fit line drop vertical line to x axis (dose)).

The test system of test [4] is Laser-induced Choroidal Neovascularization (CNV). Kind of test: Laser-induced Choroidal Neovascularization (CNV) in Rat (CNV Assay). Format: in vivo. As to conditions: for CNV Assay % inhibition: corn oil, oral; for CNV Assay ID50: oral dose for 50% inhibition. On the procedure: Laser-induced Choroidal Neovascularization (CNV) in Rat (CNV Assay). CNV was induced and quantified in this model as previously described (Edelman and Castro. Exp. Eye Res. 2000; 71:523-533). On day 0, male Brown Norway rats (200-300 g) were anesthetized with 100 mg/kg Ketamine and 10 mg/kg Xylazine, and pupils were dilated with 1% Tropicamide. Using the blue-green setting of a Coherent Novus Argon Laser, 3 laser bums (90 mW for 0.1 s; 100 μm diameter) were given to each eye between the retinal vessels around the optic nerve head. […]
On day 10, rats were sacrificed with 100% CO2, and blood vessels were labeled by vascular perfusion with 10 mg/ml FITC-dextran (MW 2×10^6). Using an epifluorescence microscope (20×) coupled to a spot digital camera and a PC, images were obtained from the flat mounts of the RPE-choroid-sclera from each eye, and the area occupied by hyperfluorescent neovessels within each laser lesion was measured using ImagePro 4 software.
as §1

The term inhibition denotes the relative decrease from the control value, in per cent. What is called IC50 is the concentration needed to halve the response being measured.

Bounds are passed on as bounds.

In the case of `CCN(CC)CCCOc1ccc(NC=C2C(=O)Nc3cc(F)ccc32)cc1` [Example 234, 3-{[4-(3-Diethylamino-propoxy)-phenylamino]-methylene}-6-fluoro-1,3-dihydro-indol-2-one], the inhibition at 10 µM in test [1] (Homo sapiens) was found to be 96.1%. Moreover, half-maximal inhibition in test [2] (IC50) required 110 nM. The “Miles Assay % inhibition” value in test [3] (corn oil, oral) is 95%. Also, the “CNV Assay % inhibition” value in test [4] (8.6 mg/kg (sid)) is 18%; in test [4] (35 mg/kg (sid)) it was 76%; in test [4] (80 mg/kg (sid)) it was 97%. Also, the “CNV Assay ID50” value in test [4] is recorded as 19 mg/kg.

Regarding `O=C1Nc2cc(F)ccc2C1=CNc1ccc(OCCCN2CCCCC2)cc1` [Example 239, 6-Fluoro-3-{[4-(3-piperidin-1-yl-propoxy)-phenylamino]-methylene}-1,3-dihydro-indol-2-one], the inhibition at 10 µM in test [1] (Homo sapiens) is 97.7%. In test [2], this compound displayed an IC50 of 150 nM. Besides, the “Miles Assay % inhibition” value in test [3] (corn oil, oral) was found to be 100%. Besides, the “CNV Assay % inhibition” value in test [4] (40 mg/kg (sid)) amounted to 56%.

With `O=C1Nc2ccccc2C1=CNc1ccc(OCCCCN2CCCCC2)cc1` [Example 209, 3-{[4-(4-Piperidin-1-yl-butoxy)-phenylamino]-methylene}-1,3-dihydro-indol-2-one], the inhibition at 10 µM in test [1] (Homo sapiens) was 98.6%. In addition, the midpoint of inhibition in test [2], the IC50, lay at 240 nM. In addition, the “Miles Assay % inhibition” value is listed as 79% in test [3] (PEG400, oral) and 84% in test [3] (corn oil, oral). The “CNV Assay % inhibition” value in test [4] (80 mg/kg (sid)) was 95%.

`O=C1Nc2ccccc2C1=CNc1ccc(OCCCN2CCCCC2)cc1` [Example 218, 3-{[4-(3-Piperidin-1-yl-propoxy)-phenylamino]-methylene}-1,3-dihydro-indol-2-one]: the inhibition at 10 µM in test [1] (Homo sapiens) amounted to 98.1%. For the same compound, in test [2], the IC50 was 170 nM. Besides, the “Miles Assay % inhibition” value amounted to 99% in test [3] (PEG400, oral) and 97% in test [3] (corn oil, oral). Moreover, the figures for the “CNV Assay % inhibition” value in test [4] (9.3 mg/kg (sid)), in test [4] (38.5 mg/kg (sid)) and in test [4] (80 mg/kg (sid)) were 33%, 68% and 99%, respectively. For the same compound, the “CNV Assay ID50” value in test [4] came out at 17 mg/kg.

`CCN(CC)CCCOc1ccc(NC=C2C(=O)Nc3cccc(C)c32)cc1` [Example 231, 3-{[4-(3-Diethylamino-propoxy)-phenylamino]-methylene}-4-methyl-1,3-dihydro-indol-2-one]: the inhibition at 10 µM in test [1] (Homo sapiens) was found to be 93.3%. This compound had an IC50 in test [2] of 70 nM. Also, the “Miles Assay % inhibition” value in test [3] (corn oil, oral) stood at 93%. Moreover, the “CNV Assay % inhibition” value in test [4] (80 mg/kg (sid)) is listed as 85%.

Consider `Cc1cccc2c1C(=CNc1ccc(N)cc1)C(=O)N2` [Example 181, 3-[(4-Amino-phenylamino)-methylene]-4-methyl-1,3-dihydro-indol-2-one], for which the inhibition at 10 µM in test [1] (Homo sapiens) was 97.7%. This compound also came in with an IC50 in test [2] of 350 nM. The “Miles Assay % inhibition” value in test [3] (PEG400, oral) is 38%.

With `Cc1cccc2c1C(=CNc1ccc(OCCCN3CCCCC3)cc1)C(=O)N2` [Example 238, 4-Methyl-3-{[4-(3-piperidin-1-yl-propoxy)-phenylamino]-methylene}-1,3-dihydro-indol-2-one], the IC50 is 780 nM in test [1], not above 1000 nM in test [1] (Homo sapiens) and 60 nM in test [2]. Also, the inhibition at 10 µM in test [1] (Homo sapiens) is 98.4%. Besides, in test [3] (corn oil, oral), the “Miles Assay % inhibition” value was 60%.

Consider `O=C1Nc2ccccc2C1=CNc1ccc(OCCCN2CCCC2)cc1` [Example 216, 3-{[4-(3-Pyrrolidin-1-yl-propoxy)-phenylamino]-methylene}-1,3-dihydro-indol-2-one], for which the half-maximal inhibitory concentration (IC50) in test [1] is 570 nM; in test [1] (Homo sapiens) it was not above 1000 nM; in test [2], 340 nM. Moreover, the inhibition at 10 µM in test [1] (Homo sapiens) came to 95.3%. For the same compound, in test [3] (PEG400, oral), the “Miles Assay % inhibition” value was 91%.

Take `CN1CCN(CCCCOc2ccc(NC=C3C(=O)Nc4ccccc43)cc2)CC1` [Example 208, 3-({4-[4-(4-Methyl-piperazin-1-yl)-butoxy]-phenylamino}-methylene)-1,3-dihydro-indol-2-one]: the IC50 is 530 nM in test [1], not above 1000 nM in test [1] (Homo sapiens) and 260 nM in test [2]. The inhibition at 10 µM in test [1] (Homo sapiens) is 99%. Moreover, the “Miles Assay % inhibition” value in test [3] (corn oil, oral) was determined as 32%.

Source of the values: patent US20030225152A1, “3-(Arylamino)methylene-1, 3-dihydro-2h-indol-2-ones as kinase inhibitors” (priority 2001, published 2003).
